Measured values from patent US20180028552A1, “COMBINATION THERAPY FOR TREATING CANCER” (Epizyme, Inc., priority 2015, published 2018).
Entries after “also recorded” stand apart in the source; their conditions may differ.

Columns and labels:
[1] = in vivo; settings: nude, rat, ip
Experimental: (§2) To follow up on these findings and to determine if combinations were tolerable and efficacious in vivo, nude rats implanted subcutaneously with MV4-11 tumors were dosed using a range of doses and schedules. […] In preparation for an efficacy combination study, the Azacitidine and Cytarabine single agent activity in a MV4-11 model was determined.
(§3) 35 mg/kg/day EPZ-5676 was administered by continous IV (CIV) infusion while Azacitdine and Cytarabine was dosed daily by intraperitoneal injection at 2 and 200 mg/kg respectively. […] The tumor volumes are represented as the median tumor volumes mm^3 of the group.

[2] = test system: ML-2 (MLL-AF6) cells; assay: Cellular differentiation assay in ML-2 cells; type: cell-based; settings: for cellular differentiation (CD14+ differentiated cell population): 0.5 μM EPZ-5676, day not given
[3] = test system: MV4-11 tumors; assay: MV4-11 subcutaneous xenograft efficacy study in nude rats; type: in vivo, rat; settings: single agent at the MTD (Azacitidine 2 mg/kg, Cytarabine 200 mg/kg), intraperitoneal once daily for 14 days
Experimental: as §2, §3

[4] = test system: RS4;11 (MLL-AF4) cells; assay: Cellular differentiation assay in RS4;11 cells; type: cell-based; settings: for cellular differentiation: 0.5 μM EPZ-5676, day not given
[5] = test system: MV4-11 (MLL-AF4) cells; assay: Cell death / cell kill in MV4-11 cells (Annexin V/7-AAD flow cytometry, CTG, cell count, Incucyte caspase 3/7); type: cell-based; settings: for cell death in a dose response experiment: single agent dose response
Source text: FIG. 2A depicts three experimental conditions: 1) MV4-11 cells were contacted with AZA for three consecutive days, followed by treatment with EPZ-5676 on the second, fourth, sixth, and ninth day; 2) the MV4-11 cells were contacted with vehicle for three consecutive days, followed by treatment with EPZ-5676 on the second, fourth, sixth, and ninth day; and 3) the MV4-11 cells were contacted with vehicle for three consecutive days, followed by contact with vehicle on the second, fourth, sixth, and ninth day.
FIGS. 5A-5F are a series of graphs that depict real-time imaging to study the effect of AZA priming on MV4-11 cells utilizing Incucyte Zoom® for suspension cell imaging. […] The Kinetic Caspase 3/7 reagent was used to assess cell death (FIG. 5B). For these assays, 6,000 cells were plated per well of a 96-well plate and dosed with EPZ-5676 using a ten point concentration gradient starting from 10 μM. 1× caspase dye was then added to each well. FIG. 5C is a series of graphs that depict real-time monitoring of cell death using Caspase 3/7 kinetic dye. […] FIG. 5E is a series of graphs that depict real-time monitoring of AUC Growth by Red object (labeled cell) count. FIG. 5F is a series of graphs that depicts cellular AUC growth following vehicle or AZA priming followed by treatment with EPZ-5676, and control conditions including vehicle alone, DMSO.
In this study of Example 1, the flexibility of treatment schedules when EPZ-5676 was combined with Azacitidine in MLL-r cells was evaluated.
Compounds were evaluated for cell killing effects as single agents and in combination according to the methods described in the experimental setup.

[6] = test system: RS4;11 (MLL-AF4) cells; assay: Cell death / cell kill in RS4;11 cells; type: cell-based; settings: for cell death / cell kill: 0.5 μM EPZ-5676, day not given
[7] = test system: NOMO-1 (MLL-AF9) cells; assay: Cell death / cell kill in NOMO-1 cells (Annexin V/7-AAD); type: cell-based; settings: for resistance of cell line to the agent: sensitive is defined as IC50 ≤ 3 μM
Experimental: (§1) FIGS. 4A-4H are a series of schematics and graphs that depict the effect on cellular differentiation of AZA priming in AML cell lines. […] FIG. 4C depicts AZA dose response curves for an AML cell line panel. […] For the flow cytometry assays, Annexin V/7-AAD staining was used to assess cell death, and CD11b/CD14 antibodies were used to evaluate cellular differentiation. […] Flow cytometry assays were also performed to assess cellular differentiation and cell death following AZA priming followed by treatment of the cells with 0.5 μM EPZ-5676.

[8] = test system: ML-2 (MLL-AF6) cells; assay: Cell death / cell kill in ML-2 cells; type: cell-based; settings: for cell death: 0.5 μM EPZ-5676, day not given
[9] = test system: MEIS1; assay: MEIS1 mRNA expression in MV4-11 cell line; type: cell-based; settings: with increased concentrations (dose dependent)
Experimental: FIGS. 1A-1D are a series of graphs that depict mRNA expression levels of MEIS1 (FIGS. 1A and 1C) and HOXA2 (FIGS. 1B and 1D) in the MV4-11 cell line following treatment with AZA (also referred to herein as Azacitidine) and EPZ-5676. The data depicted in FIGS. 1A and 1B are from assays in which various concentrations of EPZ-5676 or DMSO alone, in combination with 1 μM AZA QD×3, 0.3 μM AZA QD×3, or vehicle alone were contacted with the cultured MV4-11 cells. (QD=daily dosage; QD×3=three day treatment). […]

[10] = test system: histone H3K79 methylation; settings: cited from earlier work
[11] = test system: NOMO-1 (MLL-AF9) cells; assay: Cellular differentiation assay (CD11b/CD14) in NOMO-1 cells; type: cell-based; settings: 0.5 μM EPZ-5676; day not given
Experimental: as §1

[12] = test system: MV4-11 (MLL-AF4) cells; assay: Cellular differentiation assay (CD11b/CD14 flow cytometry) in MV4-11 cells; type: cell-based
Experimental: FIGS. 4A-4H are a series of schematics and graphs that depict the effect on cellular differentiation of AZA priming in AML cell lines. FIGS. 4A and 4B are a series of schematics that depict the experimental setup of the assays performed to determine differentiation and cell death. FIG. 4C depicts AZA dose response curves for an AML cell line panel. FIGS. 4D-4G are a series of flow cytometry assays that were performed to assess cellular differentiation and cell death in the NOMO-1 acute myeloid leukemia cell line. For the flow cytometry assays, Annexin V/7-AAD staining was used to assess cell death, and CD11b/CD14 antibodies were used to evaluate cellular differentiation. […] Flow cytometry assays were also performed to assess cellular differentiation and cell death following AZA priming followed by treatment of the cells with 0.5 μM EPZ-5676.
FIGS. 6A-6D are a series of flow cytometry graphs that depict cellular differentiation and cell death following treatment of MV4-11 (MLL-AF4) cells with vehicle or AZA priming followed by 0.5 μM EPZ-5676, or vehicle only conditions.

[13] = test system: REH (non-rearranged control); assay: Cell kill combination study in REH cells; type: cell-based; settings: sensitive is defined as IC50 ≤ 3 μM
[14] = test system: H3K79me2; assay: H3K79me2 ChIP-qPCR in MV4-11 cells; type: cell-based; settings: 0.5 μM EPZ-5676; 0.5 μM QD×3 AZA
Experimental: FIGS. 3A-3D are a series of graphs that contain data obtained from H3K79me2 ChIP-qPCR assays of MV4-11 (MLL-AF4) cells at various time points following exposure to either vehicle alone, vehicle and 0.5 μM EPZ-5676, or 0.5 μM QD×3 AZA and 0.5 μM EPZ-5676.

[15] = test system: MLL rearranged leukemia xenograft; settings: in vivo; cited from earlier work
[16] = test system: HOXA9; assay: HOXA9 expression; type: cell-based; settings: dose dependent
Source text: For example, a gene expression assay that can be used includes the steps of (1) culturing cells (e.g., EOL-1, KOPM-88, Molm13, MV411, LOUCY, SemK2, Reh, HL60, BV173, or Jurkat cells) in the presence or absence of a compound (e.g., Compound A2 and/or a DNMT inhibitor); (2) harvesting the cells; (3) extracting the RNA using methods known in the art (e.g., Qiagen RNeasy Kit); (4) synthesizing cDNA from the extracted RNA (e.g., Applied Biosystems reverse transcriptase kit); (5) preparing qPCR reactions using, for example, primers and probes (e.g., predesigned labeled primer and probe sets for HOXA9, FLT3, MEIS1, MEIS2, TBP, BCL, DOT1L, and β2-microglobulin from Applied Biosystems), synthesized sample cDNA, and qPCR master mix reagent (e.g., Applied Biosystems Taqman universal PCR master mix); (6) running samples on PCR machine (e.g., Applied Biosystems); (7) analysis of the data and calculation of relative gene expression.

[17] = 0.5 μM EPZ-5676 with or without AZA priming, day not given
[18] = sensitive is defined as IC50 ≤ 3 μM

Structure (SMILES): Nc1ncn([C@@H]2O[C@H](CO)[C@@H](O)[C@H]2O)c(=O)n1 [Azacitidine, reference compound]
- MTD at 14 days [1]: 2 mg/kg
- cellular differentiation (CD14+ differentiated cell population) [2]: no effect
- inhibition of subcutaneous MV4-11 tumor compared to vehicle control [3]: 50%
- cellular differentiation [4]: no effect
- cell death in a dose response experiment [5]: AZA induces cell death in MV4-11 cells
- cell death / cell kill [6]: effect on cell death
- resistance of cell line to the agent [7]: resistant
- cell death [8]: effect on cell death

Structure (SMILES): Nc1ccn([C@@H]2O[C@H](CO)[C@@H](O)[C@@H]2O)c(=O)n1 [Cytarabine]
- MTD at 14 days [1]: 200 mg/kg
- inhibition of subcutaneous MV4-11 tumor compared to vehicle control [3]: 50%

Structure (SMILES): CC(C)N(C[C@H]1O[C@@H](n2cnc3c(N)ncnc32)[C@H](O)[C@@H]1O)[C@H]1C[C@@H](CCc2nc3cc(C(C)(C)C)ccc3[nH]2)C1 [EPZ-5676, pinometostat]
- MEIS1 mRNA levels / expression [9]: reduces
- inhibition of intracellular histone H3K79 methylation [10]: selectively inhibits
- cellular differentiation (CD14+ differentiated cell population) [2]: no cell differentiation; also recorded: population as compared to no
- differentiation ([2]; Day 6): No differentiation
- differentiation ([2]; Day 10): No differentiation
- amount of CD14+ cells [11]: increase
- cellular differentiation (CD14 positive population) [12, 17]: no increase
- CD11b+ cell population ([12]; Day 6): Depletion of CD11b+ cell
- CD14+ cell population ([12]; Day 6): No increase in CD14+
- CD11b+ cell population ([12]; Day 10): Depletion of CD11b+
- CD14+ cell population ([12]; Day 10): No increase in CD14+—
- cellular differentiation [4]: no cell differentiation
- differentiation ([4]; Day 6): No differentiation
- differentiation ([4]; Day 10): No differentiation
- resistance of cell line to the agent [13]: resistant
- H3K79me2 signal / mark (ChIP-qPCR, MEIS1 and HOXA9 genes) [14]: reduced; also recorded: single agent both decrease H3K79me2
- tumor response [15]: complete tumor regressions
- HOXA9 expression [16]: reduces
- cell death [5, 17]: no appreciable cell death
- IC50 ([5]; Homo sapiens, MV4-11, read-out: sensitivity of MV4-11 to EPZ-5676): ≤ 3000 nM
- cell death in a dose response experiment [5]: EPZ-5676 does not induce cell death in
- cell death / cell kill [6]: no cell death
- cell kill ([6]; Day 6): No cell kill with EPZ-
- cell kill ([6]; Day 10): No cell kill with EPZ-
- resistance of cell line to the agent [6, 18]: resistant
- cell death ([7]; 0.5 μM EPZ-5676, day not given): no appreciable cell death
- cell kill ([7]; Day 6): No cell kill with EPZ-
- cell kill ([7]; Day 10): No cell kill with EPZ-
- resistance of cell line to the agent [7]: resistant
- cell death [8]: no cell death
- cell kill ([8]; Day 6): No cell kill with EPZ-
- cell kill ([8]; Day 10): No cell kill with EPZ-
- resistance of cell line to the agent [8, 18]: resistant
